This note sets out measurements from BindingDB's records for PubMed 34735766 (Shandong University, 2021).

This assay in a line: Inhibition of Influenza A virus H1N1 Neuraminidase.

In the case of `CCC(CC)O[C@@H]1C=C(C(=O)O)C[C@H](NCc2ccc(Sc3ccccc3)cc2)[C@H]1NC(C)=O`, the IC50 was 5.6 nM.

For orientation: IC50 means the midpoint of a concentration-inhibition curve.
